Results taken from patent publication US20260085062A1, “NOVEL COMPOUNDS AS CK2 INHIBITORS” (Cambridge Enterprise Limited, priority 2022, published 2026).

Columns and labels:
CK2α = target: T1, CK2α (Homo sapiens, UniProt P68400); experiment: Biochemical assay for inhibitors of CK2α kinase activity (ADP-Glo); conditions: 0.2 nM CK2α, 50 μM peptide substrate, 15 μM ATP, read-out: Assay 1: CK2α Enzyme IC50
T1 construct: CK2α (residues 2-329) was produced in Escherichia coli BL21 (DE3) for kinase activity screening; His6 (N, cleaved yes); made in house; host or cells: Escherichia coli BL21 (DE3)
T1 sequence (P68400 2-329): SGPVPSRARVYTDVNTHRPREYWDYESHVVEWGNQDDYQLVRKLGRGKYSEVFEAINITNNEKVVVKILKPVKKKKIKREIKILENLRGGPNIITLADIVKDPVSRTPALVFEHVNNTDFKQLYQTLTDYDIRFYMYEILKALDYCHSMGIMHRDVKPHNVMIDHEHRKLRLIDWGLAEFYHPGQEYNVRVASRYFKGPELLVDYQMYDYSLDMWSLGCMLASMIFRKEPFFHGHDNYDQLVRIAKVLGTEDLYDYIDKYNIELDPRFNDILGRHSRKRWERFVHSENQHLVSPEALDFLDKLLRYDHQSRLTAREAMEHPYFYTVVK

intracellular CK2α = target: T2, intracellular CK2α (Homo sapiens, UniProt P19784); experiment: Cell-based NanoBRET assay for inhibitor binding to intracellular CK2α; conditions: HCT116 cells transiently transfected with CSNK2A2-NanoLuc fusion vector; Tracer K-5; 2 h; read-out: Assay 3: NanoBRET ™ assay for binding to intracellular CK2α
T2 construct: host or cells: HCT116 (ATCC CCL-247)
How it was run: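 Living cells expressing NanoLuc-CK2α fusion were given a fixed tracer concentration, and compounds competitively displaced the reversibly bound tracer. Donor (450 nm) and acceptor (610 or 630 nm) emissions were read; BRET ratio = (acceptor/donor)×1,000, giving apparent intracellular affinity.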

CLK2 = target: T3, CLK2 (Homo sapiens, UniProt P49760); experiment: Biochemical assay for inhibitors of CLK2 kinase activity (ADP-Glo); conditions: 20 nM CLK2, 50 μM peptide substrate, 100 μM ATP, read-out: Assay 2: CLK2 Enzyme IC50
T3 construct: purchased Carna Biosciences 04-127
T3 sequence (P49760 whole entry): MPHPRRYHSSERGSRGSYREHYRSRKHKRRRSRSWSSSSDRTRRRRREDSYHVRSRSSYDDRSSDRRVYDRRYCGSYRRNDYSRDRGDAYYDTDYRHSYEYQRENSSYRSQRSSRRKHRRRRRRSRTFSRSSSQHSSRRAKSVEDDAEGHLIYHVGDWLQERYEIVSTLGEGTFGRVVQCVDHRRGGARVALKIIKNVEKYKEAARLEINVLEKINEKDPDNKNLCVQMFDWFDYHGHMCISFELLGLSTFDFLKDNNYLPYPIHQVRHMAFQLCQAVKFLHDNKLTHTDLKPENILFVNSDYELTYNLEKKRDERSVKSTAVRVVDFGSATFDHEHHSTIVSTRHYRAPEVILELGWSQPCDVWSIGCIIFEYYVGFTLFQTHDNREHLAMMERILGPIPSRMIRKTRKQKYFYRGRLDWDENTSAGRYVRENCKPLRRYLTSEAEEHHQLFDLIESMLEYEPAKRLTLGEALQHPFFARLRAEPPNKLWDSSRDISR

T2 sequence (P19784 whole entry, the tested form may be a part): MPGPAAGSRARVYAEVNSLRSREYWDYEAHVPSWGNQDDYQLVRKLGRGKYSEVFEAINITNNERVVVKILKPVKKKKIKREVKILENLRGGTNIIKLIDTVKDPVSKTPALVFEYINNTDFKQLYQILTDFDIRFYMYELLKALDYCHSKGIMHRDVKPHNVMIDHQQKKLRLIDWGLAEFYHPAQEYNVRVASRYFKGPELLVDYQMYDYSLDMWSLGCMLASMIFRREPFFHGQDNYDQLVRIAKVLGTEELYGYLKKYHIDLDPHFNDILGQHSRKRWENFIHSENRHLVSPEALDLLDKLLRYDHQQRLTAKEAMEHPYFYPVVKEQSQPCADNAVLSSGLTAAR

Structure (SMILES) | IC50 (CK2α) [nM] | IC50 (intracellular CK2α) [nM] | IC50 (CLK2) [nM]
OCc1cc(Cl)cc(CNCCCCOC2CN(c3cc(-c4ccnnc4)cc4[nH]ncc34)C2)c1 [Example 111, (3-chloro-5-(((4-((1-(6-(pyridazin-4-yl)-1H-indazol-4-yl)azetidin-3-yl)oxy)butyl)amino)methyl)phenyl)methanol] | 228 | 14200 | 2300
FC(F)(F)c1ccc2[nH]c(CNCCCCOCCNc3cc(-c4ccncn4)cc4[nH]ncc34)cc2c1 [Example 95, 6-(pyrimidin-4-yl)-N-(2-(4-(((5-(trifluoromethyl)-1H-indol-2-yl)methyl)amino)butoxy)ethyl)-1H-indazol-4-amine] | 6.56 | 336 | 203
O=C(CCNCc1ccc(-c2ccccc2)c(Cl)c1)NCCCNc1cc(CO)cc2[nH]ncc12 [Example 63, 3-(((2-chloro-[1,1′-biphenyl]-4-yl)methyl)amino)-N-(3-((6-(hydroxymethyl)-1H-indazol-4-yl)amino)propyl)propanamide] | 68.3 | 4980 | 2370
N#Cc1cc(CNCCC(=O)NCCCNc2cc(-n3cnnc3)cc3[nH]ncc23)ccc1OC1CCC1 [Example 39, N-(3-((6-(4H-1,2,4-triazol-4-yl)-1H-indazol-4-yl)amino)propyl)-3-((3-cyano-4-cyclobutoxybenzyl)amino)propanamide] | 0.28 | 2080 | 63.3
COc1n[nH]cc1-c1cc(NCCOCCCCNCc2cc3cc(C(F)(F)F)ccc3[nH]2)c2cn[nH]c2c1 [Example 92, 6-(3-methoxy-1H-pyrazol-4-yl)-N-(2-(4-(((5-(trifluoromethyl)-1H-indol-2-yl)methyl)amino)butoxy)ethyl)-1H-indazol-4-amine] | 19.1 | 1780 | 24.1
OCc1cc(Cl)cc(CNCCCCOC2CN(c3cc(-n4cnnc4)cc4[nH]ncc34)C2)c1 [Example 130, (3-(((4-((1-(6-(4H-1,2,4-triazol-4-yl)-1H-indazol-4-yl)azetidin-3-yl)oxy)butyl)amino)methyl)-5-chlorophenyl)methanol] | 106 | 15400 | 326
OCc1cc(CNCCCCOC2CN(c3cc(-c4ccnnc4)cc4[nH]ncc34)C2)cc(C(F)(F)F)c1 [Example 112, (3-(((4-((1-(6-(pyridazin-4-yl)-1H-indazol-4-yl)azetidin-3-yl)oxy)butyl)amino)methyl)-5-(trifluoromethyl)phenyl)methanol] | 205 | 14000 | 633
Fc1cc(CNCCCCOCCNc2cc(-n3cnnc3)c(Cl)c3[nH]ncc23)cc(F)c1OC(F)(F)F [Example 182, 7-chloro-N-(2-(4-((3,5-difluoro-4-(trifluoromethoxy)benzyl)amino)butoxy)ethyl)-6-(4H-1,2,4-triazol-4-yl)-1H-indazol-4-amine] | 29.6 | 5410 | 1820

Next, values leading:

IC50 (CK2α) [nM] | IC50 (intracellular CK2α) [nM] | IC50 (CLK2) [nM] | Structure (SMILES)
2.65 | 12000 | 133 | N#CCc1cccc(CNCCC(=O)NCCCNc2cc(-n3cnnc3)cc3[nH]ncc23)c1 [Example 47, N-(3-((6-(4H-1,2,4-triazol-4-yl)-1H-indazol-4-yl)amino)propyl)-3-((3-(cyanomethyl)benzyl)amino)propanamide]
1.17 | 361 | 3170 | O=C(CCNCc1ccc(OC(F)(F)F)c(Cl)c1)NCCCNc1cc(-c2ncno2)cc2[nH]ncc12 [Example 173, N-(3-((6-(1,2,4-oxadiazol-5-yl)-1H-indazol-4-yl)amino)propyl)-3-((3-chloro-4-(trifluoromethoxy)benzyl)amino)propanamide]
8.62 | 949 | 4680 | N#Cc1cc(-c2cc(NCCCNC(=O)CCNCc3ccc(OC(F)(F)F)c(Cl)c3)c3cn[nH]c3c2)cnn1 [Example 187, 3-((3-chloro-4-(trifluoromethoxy)benzyl)amino)-N-(3-((6-(6-cyanopyridazin-4-yl)-1H-indazol-4-yl)amino)propyl)propanamide]
0.62 | 304 | 1100 | O=C(CCNCc1ccc(-c2ccccc2)c(Cl)c1)NCCCNc1cc(-c2ccncc2)cc2[nH]nnc12 [Example 8, 3-(((2-chloro-[1,1′-biphenyl]-4-yl)methyl)amino)-N-(3-((6-(pyridin-4-yl)-1H-benzo[d][1,2,3]triazol-4-yl)amino)propyl)propanamide]
17.5 | > 50000 | 112 | O=C(CCNCc1cccc(CO)c1)NCCCNc1cc(-n2cnnc2)cc2[nH]ncc12 [Example 35, N-(3-((6-(4H-1,2,4-triazol-4-yl)-1H-indazol-4-yl)amino)propyl)-3-((3-(hydroxymethyl)benzyl)amino)propanamide]
0.77 | 135 | 33.4 | O=C(CCNCc1ccc(-c2ccccc2)c(Cl)c1)NCCCNc1cc(-c2cn[nH]c2)cc2[nH]ncc12 [Example 3, N-(3-((6-(1H-pyrazol-4-yl)-1H-indazol-4-yl)amino)propyl)-3-(((2-chloro-[1,1′-biphenyl]-4-yl)methyl)amino)propanamide]
0.95 | 322 | 56.4 | Cc1n[nH]cc1-c1cc(NCCCNC(=O)CCNCc2ccc(-c3ccccc3)c(Cl)c2)c2cn[nH]c2c1 [Example 27, 3-(((2-chloro-[1,1′-biphenyl]-4-yl)methyl)amino)-N-(3-((6-(3-methyl-1H-pyrazol-4-yl)-1H-indazol-4-yl)amino)propyl)propanamide]
